# From ChEMBL document CHEMBL1201862, “PubChem BioAssay data set” (2004)
# Calls of active or inactive are those of the source.
# Columns and labels:
# [1] = HPDE-C7 pancreatic duct cell viability loss – fluorescence, HTS (AID 430); assay type: functional, cell-based; conditions: Homo sapiens
# [2] = viability loss of HPDE-C7K cells – cell-based, fluorescence, HTS, primary screen (AID 431); assay type: functional; conditions: Homo sapiens
# Estrogen receptor = target: T1, Estrogen receptor (Homo sapiens, UniProt P03372); test: ERα coactivator recruitment enhancers – biochemical, TR-FRET, ERα LBD, dose response (AID 737)
# T1 sequence (P03372 whole entry): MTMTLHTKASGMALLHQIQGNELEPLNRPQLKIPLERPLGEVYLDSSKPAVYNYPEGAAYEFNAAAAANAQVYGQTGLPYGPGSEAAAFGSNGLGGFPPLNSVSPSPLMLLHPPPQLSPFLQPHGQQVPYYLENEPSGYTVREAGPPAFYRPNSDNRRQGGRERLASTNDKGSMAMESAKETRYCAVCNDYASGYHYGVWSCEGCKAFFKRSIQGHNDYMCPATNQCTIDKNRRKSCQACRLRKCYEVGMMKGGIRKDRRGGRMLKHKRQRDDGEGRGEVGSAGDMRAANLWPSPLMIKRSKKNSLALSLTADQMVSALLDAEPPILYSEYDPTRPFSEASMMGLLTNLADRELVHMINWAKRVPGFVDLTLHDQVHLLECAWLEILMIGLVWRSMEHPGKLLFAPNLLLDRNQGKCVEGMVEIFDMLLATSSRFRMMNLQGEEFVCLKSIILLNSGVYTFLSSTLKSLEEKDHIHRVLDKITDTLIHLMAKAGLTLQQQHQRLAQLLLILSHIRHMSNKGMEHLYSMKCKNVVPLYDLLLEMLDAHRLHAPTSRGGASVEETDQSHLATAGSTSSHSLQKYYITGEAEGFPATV
# [3] = THP-1 cell cytotoxicity, dose response, cytotoxicity control for non-replicating M. tuberculosis project (AID 489025); assay type: functional
# [4] = HepG2 cell cytotoxicity, dose response, cytotoxicity control for non-replicating M. tuberculosis project (AID 489018); assay type: functional; conditions: Mycobacterium tuberculosis
# Hexokinase HKDC1 = Hexokinase HKDC1 (Homo sapiens, UniProt Q2TB90); test: inhibition of HKDC1 glucose phosphorylation – biochemical, W721R variant, dose response (AID 504729); assay type: functional
# Hexokinase HKDC1, sequence (Q2TB90 whole entry): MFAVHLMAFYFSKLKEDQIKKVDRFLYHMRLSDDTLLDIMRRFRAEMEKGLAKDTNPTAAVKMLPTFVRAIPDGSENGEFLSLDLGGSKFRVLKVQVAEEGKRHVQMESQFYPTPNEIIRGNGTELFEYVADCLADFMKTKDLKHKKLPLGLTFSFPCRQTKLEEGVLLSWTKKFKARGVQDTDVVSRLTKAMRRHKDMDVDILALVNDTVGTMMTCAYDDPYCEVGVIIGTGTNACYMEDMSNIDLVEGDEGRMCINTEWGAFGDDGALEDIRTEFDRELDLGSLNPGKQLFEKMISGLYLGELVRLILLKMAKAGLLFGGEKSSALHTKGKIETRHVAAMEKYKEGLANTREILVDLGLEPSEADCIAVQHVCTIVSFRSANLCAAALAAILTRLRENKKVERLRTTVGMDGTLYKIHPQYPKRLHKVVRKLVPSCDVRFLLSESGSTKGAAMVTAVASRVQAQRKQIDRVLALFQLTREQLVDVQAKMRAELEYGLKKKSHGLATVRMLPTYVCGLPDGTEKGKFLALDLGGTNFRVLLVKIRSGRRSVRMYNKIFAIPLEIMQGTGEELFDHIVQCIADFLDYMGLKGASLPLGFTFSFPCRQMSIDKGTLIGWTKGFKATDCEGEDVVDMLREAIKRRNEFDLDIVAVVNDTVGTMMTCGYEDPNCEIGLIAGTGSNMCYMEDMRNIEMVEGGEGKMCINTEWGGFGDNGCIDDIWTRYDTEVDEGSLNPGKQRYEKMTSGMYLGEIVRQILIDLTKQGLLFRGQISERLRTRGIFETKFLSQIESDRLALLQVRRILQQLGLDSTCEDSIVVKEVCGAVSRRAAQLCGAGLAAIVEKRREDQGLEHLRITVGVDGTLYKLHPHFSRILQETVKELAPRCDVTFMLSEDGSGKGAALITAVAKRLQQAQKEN
# cells = assay type: functional
# Melanocortin receptor 4 = Melanocortin receptor 4 (Homo sapiens, UniProt P32245); test: inhibitors of MC4R cAMP signaling – cell-based, TR-FRET, biased antagonists, dose response (AID 602298); assay type: functional;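 note: antagonist potency against agonist-stimulated cAMP production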
# Melanocortin receptor 4, sequence (P32245 whole entry): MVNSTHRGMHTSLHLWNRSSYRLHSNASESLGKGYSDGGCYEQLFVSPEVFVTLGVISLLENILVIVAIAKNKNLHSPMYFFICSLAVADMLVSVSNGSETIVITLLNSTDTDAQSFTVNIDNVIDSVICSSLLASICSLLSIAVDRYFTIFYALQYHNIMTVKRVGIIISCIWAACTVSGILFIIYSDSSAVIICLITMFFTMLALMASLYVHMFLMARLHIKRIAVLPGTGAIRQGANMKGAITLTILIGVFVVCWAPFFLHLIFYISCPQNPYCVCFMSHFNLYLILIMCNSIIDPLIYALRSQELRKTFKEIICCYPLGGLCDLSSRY
# [5] = reduction of Shn3 3'UTR-driven luciferase in osteoblasts – cell-based, Clone20 osteoblasts, firefly luciferase, cherry-picked, dose response (AID 624132); assay type: functional;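 note: firefly luciferase luminescence from reporter carrying the Shn3 3'UTR in osteoblasts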
# [6] = loss of viability in HepG2 cells – cell-based, CellTiter-Glo, cherry-picked, cytotoxicity control for Shn3 inhibitor project, dose response (AID 624134); assay type: functional
# [7] = cAMP pathway inhibition in counterscreen cell line – TR-FRET cAMP detection, counter-screen for MC4R biased antagonist project, dose response (AID 602305); assay type: functional, cell-based;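 note: U2OS cells stimulated with forskolin near its EC80 as the cAMP inducer; potency is for inhibition of forskolin-stimulated cAMP signaling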
# [8] = target: T2, Eukaryotic translation initiation factor 2-alpha kinase 3 (Homo sapiens, UniProt Q9NZJ5); test: Dose response cell-based high-throughput screening assay to measure PERK inhibition. [Related pubchem assays: 1416 ]; assay type: functional
# T2 sequence (Q9NZJ5 whole entry): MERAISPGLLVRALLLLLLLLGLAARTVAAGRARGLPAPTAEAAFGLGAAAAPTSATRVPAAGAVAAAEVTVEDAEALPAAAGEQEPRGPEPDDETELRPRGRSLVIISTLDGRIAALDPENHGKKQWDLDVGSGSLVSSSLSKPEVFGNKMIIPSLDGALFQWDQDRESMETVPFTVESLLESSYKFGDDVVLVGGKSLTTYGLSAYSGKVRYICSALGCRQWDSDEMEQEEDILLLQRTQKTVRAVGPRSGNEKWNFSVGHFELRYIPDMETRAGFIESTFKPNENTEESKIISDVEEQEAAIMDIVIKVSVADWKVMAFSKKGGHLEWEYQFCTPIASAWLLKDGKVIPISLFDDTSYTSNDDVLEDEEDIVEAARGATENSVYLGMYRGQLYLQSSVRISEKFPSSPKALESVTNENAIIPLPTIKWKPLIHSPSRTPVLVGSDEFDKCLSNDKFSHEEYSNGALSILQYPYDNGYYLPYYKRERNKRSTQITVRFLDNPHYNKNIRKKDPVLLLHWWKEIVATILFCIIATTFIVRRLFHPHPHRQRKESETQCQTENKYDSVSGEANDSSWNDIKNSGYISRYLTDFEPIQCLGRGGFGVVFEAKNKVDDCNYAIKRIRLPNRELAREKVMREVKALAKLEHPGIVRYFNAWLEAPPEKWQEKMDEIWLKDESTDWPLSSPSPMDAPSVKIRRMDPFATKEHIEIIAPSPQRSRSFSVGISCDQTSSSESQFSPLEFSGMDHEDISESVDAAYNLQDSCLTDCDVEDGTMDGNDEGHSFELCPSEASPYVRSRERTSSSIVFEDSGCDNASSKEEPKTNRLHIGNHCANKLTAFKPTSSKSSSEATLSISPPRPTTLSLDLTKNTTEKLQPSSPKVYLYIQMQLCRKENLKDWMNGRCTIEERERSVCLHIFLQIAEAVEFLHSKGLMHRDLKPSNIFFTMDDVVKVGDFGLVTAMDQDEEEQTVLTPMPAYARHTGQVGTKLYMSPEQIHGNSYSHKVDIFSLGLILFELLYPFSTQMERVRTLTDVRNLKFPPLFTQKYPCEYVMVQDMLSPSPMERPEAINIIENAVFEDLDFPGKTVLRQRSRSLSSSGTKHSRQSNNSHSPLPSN
# [9] = target: T2, Eukaryotic translation initiation factor 2-alpha kinase 3; test: Counterscreen assay for PERK inhibitors: Dose response cell-based high throughput screening assay to measure inhibition of PERK at 6 hours. [Related pubchem assays: 1522, 1416 ]; assay type: functional
SMILES,EC50 [1],EC50 [2],EC50 (Estrogen receptor),CC50 [3],CC50 [4],IC50 (Hexokinase HKDC1),IC50 (cells),IC50 (Melanocortin receptor 4),AC50 [5],AC50 [6],IC50 [7],EC50 [8],EC50 [9]
CCN(CC)c1ccc2c(c1)oc(=O)c1c(Cl)cc(=O)oc12,14.2 µM (active),12.1 µM (active),14.6 µM (active),> 40 µM (active),11.7 µM (active),22.4 µM (inactive),14.6 µM (active),> 64.6 µM (inactive),2.22 µM (active),8.09 µM (active),> 64.6 µM (inactive),,
C=CCNC(=O)Nc1ccc(F)cc1F,,,,,,,,,,,,> 55.7 µM (not active),> 55.7 µM (not active)
